pEC50: −log10 of the molar value. Like-named read-outs stand apart in the source and are kept apart here.

The test system of series [1] is HIV-1 (IIIB). Put plainly: Antiviral assay in MT-4 cells. Type of series: cell-based. Conditions: for pEC50: Human immunodeficiency virus 1, MT4, 120 h, HIV-1 IIIB in MT-4 cells, 5 days incubation, Cell Titer Glo, read-out: MT4 EC50. In short, it runs like this: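 HIV-1 IIIB-infected MT-4 cells (fresh 1:250 virus stock dilution; mock-infected controls) incubated 5 days at 37 °C with serially diluted compounds in RPMI/10% FBS; 5 μM AZT as positive control. Cell viability read by CellTiter-Glo luminescence as measure of protection from viral replication.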
On the technique in general: In ATP-based viability assays light output follows the ATP content of the culture.

A short description of series [2]: Cytotoxicity assay in MT-4 cells. The settings on record: human; uninfected MT-4 cells, 5 days incubation, Cell Titer Glo; read-out: MT4 CC50. Type of series: cell-based. In short, it runs like this:
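Uninfected MT-4 cells exposed to serially diluted compounds in RPMI with 10% FBS for 5 days at 37 °C. Viability by Cell Titer Glo chemiluminescence. Puromycin […] as baseline cytotoxicity control.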

Regarding `CC1=NO[C@@]2(CC[C@H](C)N3C[C@H]2n2cc(C(=O)NCc4ccc(F)cc4F)c(=O)c(OC(=O)CCCCCCC(C)C)c2C3=O)C1` [Example 67, (3′S,5S,7′R)-10′-((2,4-difluorobenzyl)carbamoyl)-3,3′-dimethyl-1′,11′-dioxo-1′,4′,5′,11′-tetrahydro-3′H,4H,7′H-spiro[isoxazole-5,6′-[2,7]methanopyrido[1,2-a][1,4]diazonin]-12′-yl 8-methylnonanoate], in series [1], the pEC50 was 9.71. The CC50 at 5 days in series [2] was determined as 18.9 µM.

Regarding `CC/C=C\C/C=C\C/C=C\C/C=C\C/C=C\CCCC(=O)Oc1c2n(cc(C(=O)NCc3ccc(F)cc3F)c1=O)[C@@H]1CN(C2=O)[C@@H](C)CC[C@]12CC(C)=NO2` [Example 68, (3′S,5S,7′R)-10′-((2,4-difluorobenzyl)carbamoyl)-3,3′-dimethyl-1′,11′-dioxo-1′,4′,5′,11′-tetrahydro-3′H,4H,7′H-spiro[isoxazole-5,6′-[2,7]methanopyrido[1,2-a][1,4]diazonin]-12′-yl (5Z,8Z,11Z,14Z,17Z)-icosa-5,8,11,14,17-pentaenoate], the pEC50 in series [1] was 8.96. The CC50 at 5 days in series [2] came out at 16.5 µM.

As to `CC/C=C\C/C=C\C/C=C\C/C=C\C/C=C\CCCC(=O)Oc1c2n(cc(C(=O)NCc3ccc(F)cc3F)c1=O)[C@@H]1CN(C2=O)[C@@H](C)CC[C@]12CC(OC)=NO2` [Example 69, (3′S,5S,7′R)-10′-((2,4-difluorobenzyl)carbamoyl)-3-methoxy-3′-methyl-1′,11′-dioxo-1′,4′,5′,11′-tetrahydro-3′H,4H,7′H-spiro[isoxazole-5,6′-[2,7]methanopyrido[1,2-a][1,4]diazonin]-12′-yl (5Z,8Z,11Z,14Z,17Z)-icosa-5,8,11,14,17-pentaenoate], in series [1], the pEC50 is 9.27. The CC50 at 5 days in series [2] came out at 42.2 µM.

In the case of `COCCCCCC(=O)Oc1c2n(cc(C(=O)NCc3ccc(F)cc3F)c1=O)[C@@H]1CN(C2=O)[C@@H](C)CC[C@]12CC(OC)=NO2` [Example 70, (3′S,5S,7′R)-10′-((2,4-difluorobenzyl)carbamoyl)-3-methoxy-3′-methyl-1′,11′-dioxo-1′,4′,5′,11′-tetrahydro-3′H,4H,7′H-spiro[isoxazole-5,6′-[2,7]methanopyrido[1,2-a][1,4]diazonin]-12′-yl 6-methoxyhexanoate], the pEC50 in series [1] was 8.99. Moreover, in series [2], the CC50 at 5 days came out at 17.6 µM.

With `COCCCCCC(=O)Oc1c2n(cc(C(=O)NCc3ccc(F)cc3F)c1=O)[C@@H]1CN(C2=O)[C@@H](C)CC[C@]12CC(C)=NO2` [Example 71, (3′S,5S,7′R)-10′-((2,4-difluorobenzyl)carbamoyl)-3,3′-dimethyl-1′,11′-dioxo-1′,4′,5′,11′-tetrahydro-3′H,4H,7′H-spiro[isoxazole-5,6′-[2,7]methanopyrido[1,2-a][1,4]diazonin]-12′-yl 6-methoxyhexanoate], in series [1], the pEC50 was 8.75. Besides, the CC50 at 5 days in series [2] was found to be 19.5 µM.

On to `COC1=NO[C@@]2(CC[C@H](C)N3C[C@H]2n2cc(C(=O)NCc4ccc(F)cc4F)c(=O)c(OC(=O)CCCC(=O)O)c2C3=O)C1` [Example 73, 5-(((3′S,5S,7′R)-10′-((2,4-difluorobenzyl)carbamoyl)-3-methoxy-3′-methyl-1′,11′-dioxo-1′,4′,5′,11′-tetrahydro-3′H,4H,7′H-spiro[isoxazole-5,6′-[2,7]methanopyrido[1,2-a][1,4]diazonin]-12′-yl)oxy)-5-oxopentanoic acid], for which the pEC50 in series [1] was 9.10. In series [2], the CC50 at 5 days is 20.2 µM.

As for `CC1=NO[C@@]2(CC[C@H](C)N3C[C@H]2n2cc(C(=O)NCc4ccc(F)cc4F)c(=O)c(OC(=O)/C=C/C(=O)O)c2C3=O)C1` [Example 75, (E)-4-(((3′S,5S,7′R)-10′-((2,4-difluorobenzyl)carbamoyl)-3,3′-dimethyl-1′,11′-dioxo-1′,4′,5′,11′-tetrahydro-3′H,4H,7′H-spiro[isoxazole-5,6′-[2,7]methanopyrido[1,2-a][1,4]diazonin]-12′-yl)oxy)-4-oxobut-2-enoic acid], in series [1] (Human immunodeficiency virus 1, IIIB, MT4, 120 h, read-out: MT4 EC50 (nM)), the EC50 came out at 1.6 nM. For the same molecule, in series [2], the CC50 at 5 days came out at 16.1 µM.

By pEC50 is commonly meant −log10 of the EC50, conventionally taken in molar units. One may read the CC50 as the concentration that lowers cell viability or growth by half. As usually defined, the EC50 is the concentration at which the effect is half-maximal.

Source of the values: patent US20250122219A1 (priority 2023, published 2025).
